Legend:
Type in all cases: in vivo
Kochia (Kochia scoparia) [1] = assay: Test A preemergence; conditions: for Kochia plant response rating (0 to 100 scale, 0 is no effect, 100 is complete control): visual injury approx. 10 d
Procedure, shortened: (§1)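 Each rating is a visual injury score from 0 to 100 given about 10 d after treatment, judged against untreated controls kept alongside in the greenhouse. In loam soil–sand blend, seeds got a preemergence directed soil spray, while postemergence plants were 2 to 10 cm tall at spraying.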

[2] = tested on: barnyardgrass (Echinochloa crus-galli); assay: Test A preemergence; conditions: for Barnyardgrass plant response rating (0 to 100 scale, 0 is no effect, 100 is complete control): visual injury approx. 10 d
Procedure, shortened: as §1

[3] = tested on: giant foxtail (Setaria faberii); assay: Test A preemergence; conditions: for Foxtail, Giant plant response rating (0 to 100 scale, 0 is no effect, 100 is complete control): visual injury approx. 10 d
Procedure, shortened: as §1

[4] = tested on: pigweed (Amaranthus retroflexus); assay: Test A preemergence; conditions: for Pigweed plant response rating (0 to 100 scale, 0 is no effect, 100 is complete control): visual injury approx. 10 d
[5] = tested on: ragweed (common ragweed, Ambrosia elatior); assay: Test A preemergence; conditions: for Ragweed plant response rating (0 to 100 scale, 0 is no effect, 100 is complete control): visual injury approx. 10 d
Procedure, shortened: as §1

[6] = tested on: ryegrass, Italian (Italian ryegrass, Lolium multiflorum); assay: Test A preemergence; conditions: for Ryegrass, Italian plant response rating (0 to 100 scale, 0 is no effect, 100 is complete control): visual injury approx. 10 d
Procedure, shortened: as §1

[7] = tested on: Galium (catchweed bedstraw, Galium aparine); assay: Test A postemergence; conditions: for Galium plant response rating: visual injury rating on 0 to 100 scale (0 no effect, 100 complete control)
Procedure, shortened: as §1

Kochia (Kochia scoparia) [8] = assay: Test A postemergence; conditions: for Kochia plant response rating: visual injury rating on 0 to 100 scale (0 no effect, 100 complete control)
Procedure, shortened: as §1

[9] = tested on: barnyardgrass (Echinochloa crus-galli); assay: Test A postemergence; conditions: for Barnyardgrass plant response rating: visual injury rating on 0 to 100 scale (0 no effect, 100 complete control)
Procedure, shortened: as §1

[10] = tested on: blackgrass (Alopecurus myosuroides); assay: Test A postemergence; conditions: for Blackgrass plant response rating: visual injury rating on 0 to 100 scale (0 no effect, 100 complete control)
Procedure, shortened: as §1

corn (Zea mays) = assay: Test A postemergence; conditions: for Corn plant response rating: visual injury rating on 0 to 100 scale (0 no effect, 100 complete control)
Procedure, shortened: as §1

[11] = tested on: giant foxtail (Setaria faberii); assay: Test A postemergence; conditions: for Foxtail, Giant plant response rating: visual injury rating on 0 to 100 scale (0 no effect, 100 complete control)
Procedure, shortened: as §1

[12] = tested on: pigweed (Amaranthus retroflexus); assay: Test A postemergence; conditions: for Pigweed plant response rating: visual injury rating on 0 to 100 scale (0 no effect, 100 complete control)
Procedure, shortened: as §1

[13] = tested on: ragweed (common ragweed, Ambrosia elatior); assay: Test A postemergence; conditions: for Ragweed plant response rating: visual injury rating on 0 to 100 scale (0 no effect, 100 complete control)
Procedure, shortened: as §1

[14] = tested on: ryegrass, Italian (Italian ryegrass, Lolium multiflorum); assay: Test A postemergence; conditions: for Ryegrass, Italian plant response rating: visual injury rating on 0 to 100 scale (0 no effect, 100 complete control)
Procedure, shortened: as §1

[15] = tested on: wheat (Triticum aestivum); assay: Test A postemergence; conditions: for Wheat plant response rating: visual injury rating on 0 to 100 scale (0 no effect, 100 complete control)
Procedure, shortened: as §1

[16] = tested on: barnyardgrass (Echinochloa crus-galli); assay: Test B flooded paddy test; conditions: Flood, 0 to 100 scale where 0 is no effect and 100 is complete control, 13 to 15 d
Procedure, shortened: (§2)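 Rating scale 0–100 (visual, vs untreated controls) after a 13–15 d greenhouse period; application to the flood layer, 3 cm above soil and maintained; plants at 2-leaf stage when treated.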

[17] = tested on: ducksalad (Heteranthera limosa); assay: Test B flooded paddy test; conditions: Flood, 0 to 100 scale where 0 is no effect and 100 is complete control, 13 to 15 d
Procedure, shortened: as §2

rice (Oryra sativa) = assay: Test B flooded paddy test; conditions: Flood, 0 to 100 scale where 0 is no effect and 100 is complete control, 13 to 15 d
Procedure, shortened: as §2

[18] = tested on: sedge, umbrella (small-flower umbrella sedge, Cyperus difformis); assay: Test B flooded paddy test; conditions: Flood, 0 to 100 scale where 0 is no effect and 100 is complete control, 13 to 15 d
Procedure, shortened: as §2

[19] = 125 g ai/ha, Preemergence, visual injury after approximately 10 d, 0 to 100 scale where 0 is no effect and 100 is complete control
[20] = 500 g ai/ha, preemergence, 0 to 100 scale, 0 = no effect, 100 = complete control
[21] = 125 g ai/ha, preemergence, visual rating after approx. 10 d, 0 to 100 scale where 0 is no effect and 100 is complete control
[22] = 125 g ai/ha, postemergence, visual injury after approximately 10 d, 0 to 100 scale (0 no effect, 100 complete control)
[23] = 500 g ai/ha, postemergence, visual injury, 0 to 100 scale (0 no effect, 100 complete control), approx. 10 d
[24] = 125 g ai/ha, postemergence, visual rating after approx. 10 d, 0 to 100 scale (0 no effect, 100 complete control)
[25] = 125 g ai/ha, postemergence, approx. 10 d
[26] = Postemergence, 500 g ai/ha, 0 to 100 scale where 0 is no effect and 100 is complete control
[27] = 125 g ai/ha, preemergence, 0 to 100 scale (0 no effect, 100 complete control)
[28] = 500 g ai/ha, postemergence, 0 to 100 scale, 0 no effect, 100 complete control

O=C1NCC(c2cccc(Br)c2)C1C(=O)Nc1cccc(F)c1F (racemic) [Compound 688]
Plant response rating, Kochia (Kochia (Kochia scoparia) [1]; [19]): 30 | Plant response rating, Kochia (Kochia (Kochia scoparia) [1]; [20]): 50 | Plant response rating, Barnyardgrass [2, 19]: 90 | Plant response rating, Barnyardgrass [2, 20]: 90 | Plant response rating, Foxtail, Giant [3, 19]: 90 | Plant response rating, Foxtail, Giant [3, 20]: 90 | Plant response rating, Pigweed [4, 21]: 30 | Plant response rating, Pigweed [4, 20]: 40 | Plant response rating, Ragweed [5, 21]: 20 | Plant response rating, Ragweed [5, 20]: 40 | Plant response rating, Ryegrass, Italian [6, 21]: 0 | Plant response rating, Ryegrass, Italian [6, 20]: 20 | Plant response rating, Galium [7, 22]: 40 | Plant response rating, Galium [7, 23]: 50 | Plant response rating, Kochia (Kochia (Kochia scoparia) [8]; [22]): 40 | Plant response rating, Kochia (Kochia (Kochia scoparia) [8]; [23]): 60 | Plant response rating, Barnyardgrass [9, 24]: 90 | Plant response rating, Barnyardgrass [9, 23]: 90 | Plant response rating, Blackgrass [10, 24]: 50 | Plant response rating, Blackgrass [10, 23]: 60 | Plant response rating, Corn (corn (Zea mays); [22]): 40 | Plant response rating, Corn (corn (Zea mays); [23]): 70 | Plant response rating, Foxtail, Giant [11, 22]: 90 | Plant response rating, Foxtail, Giant [11, 23]: 90 | Plant response rating, Pigweed [12, 22]: 30 | Plant response rating, Pigweed [12, 23]: 50 | Plant response rating, Ragweed [13, 22]: 30 | Plant response rating, Ragweed [13, 23]: 50 | Plant response rating, Ryegrass, Italian [14, 22]: 40 | Plant response rating, Ryegrass, Italian [14, 23]: 60 | Plant response rating, Wheat [15, 22]: 20 | Plant response rating, Wheat [15, 23]: 70 | Plant response rating, Barnyardgrass ([16]; 250 g ai/ha): 35 | Plant response rating, Ducksalad ([17]; 250 g ai/ha): 100 | Plant response rating, Rice (rice (Oryra sativa); 250 g ai/ha): 0 | Plant response rating, Sedge, Umbrella ([18]; 250 g ai/ha): 0

O=C1NCC(c2ccc(C(F)(F)F)c(F)c2)C1C(=O)Nc1ccc(F)cc1F (racemic) [Compound 522]
Plant response rating, Kochia (Kochia (Kochia scoparia) [1]; [19]): 60 | Kochia plant response rating (0 to 100 scale, 0 is no effect, 100 is complete control) (Kochia (Kochia scoparia) [1]; Preemergence, 500 g ai/ha): 60 | Plant response rating, Barnyardgrass [2, 19]: 90 | Barnyardgrass plant response rating (0 to 100 scale, 0 is no effect, 100 is complete control) ([2]; Preemergence, 500 g ai/ha): 90 | Plant response rating, Foxtail, Giant [3, 19]: 90 | Foxtail, Giant plant response rating (0 to 100 scale, 0 is no effect, 100 is complete control) ([3]; Preemergence, 500 g ai/ha): 90 | Plant response rating, Pigweed [4, 19]: 70 | Pigweed plant response rating (0 to 100 scale, 0 is no effect, 100 is complete control) ([4]; Preemergence, 500 g ai/ha): 80 | Plant response rating, Ragweed [5, 19]: 0 | Ragweed plant response rating (0 to 100 scale, 0 is no effect, 100 is complete control) ([5]; Preemergence, 500 g ai/ha): 30 | Plant response rating, Ryegrass, Italian [6, 19]: 30 | Ryegrass, Italian plant response rating (0 to 100 scale, 0 is no effect, 100 is complete control) ([6]; Preemergence, 500 g ai/ha): 60 | Galium plant response rating [7, 25]: 30 | Plant response rating, Galium [7, 26]: 60 | Kochia plant response rating (Kochia (Kochia scoparia) [8]; [25]): 20 | Plant response rating, Kochia (Kochia (Kochia scoparia) [8]; [26]): 50 | Barnyardgrass plant response rating [9, 25]: 60 | Plant response rating, Barnyardgrass [9, 26]: 80 | Blackgrass plant response rating [10, 25]: 30 | Plant response rating, Blackgrass [10, 26]: 50 | Corn plant response rating (corn (Zea mays); [25]): 0 | Plant response rating, Corn (corn (Zea mays); [26]): 20 | Foxtail, Giant plant response rating [11, 25]: 90 | Plant response rating, Foxtail, Giant [11, 26]: 90 | Pigweed plant response rating [12, 25]: 20 | Plant response rating, Pigweed [12, 26]: 40 | Ragweed plant response rating [13, 25]: 0 | Plant response rating, Ragweed [13, 26]: 0 | Ryegrass, Italian plant response rating [14, 25]: 20 | Plant response rating, Ryegrass, Italian [14, 26]: 40 | Wheat plant response rating [15, 25]: 0 | Plant response rating, Wheat [15, 26]: 20 | Plant response rating, Barnyardgrass ([16]; 250 g ai/ha): 40 | Plant response rating, Ducksalad ([17]; 250 g ai/ha): 100 | Plant response rating, Rice (rice (Oryra sativa); 250 g ai/ha): 0 | Plant response rating, Sedge, Umbrella ([18]; 250 g ai/ha): 0

O=C1NCC(c2ccc(F)c(F)c2)C1C(=O)Nc1ccc(F)cc1Cl (stereo not drawn) [Compound 411]
Plant response rating, Kochia (Kochia (Kochia scoparia) [1]; [27]): 0 | Kochia plant response rating (0 to 100 scale, 0 is no effect, 100 is complete control) (Kochia (Kochia scoparia) [1]; Preemergence, 500 g ai/ha): 0 | Plant response rating, Barnyardgrass [2, 27]: 70 | Barnyardgrass plant response rating (0 to 100 scale, 0 is no effect, 100 is complete control) ([2]; Preemergence, 500 g ai/ha): 80 | Plant response rating, Foxtail, Giant [3, 27]: 80 | Foxtail, Giant plant response rating (0 to 100 scale, 0 is no effect, 100 is complete control) ([3]; Preemergence, 500 g ai/ha): 90 | Plant response rating, Pigweed [4, 27]: 0 | Pigweed plant response rating (0 to 100 scale, 0 is no effect, 100 is complete control) ([4]; Preemergence, 500 g ai/ha): 10 | Plant response rating, Ragweed [5, 27]: 0 | Ragweed plant response rating (0 to 100 scale, 0 is no effect, 100 is complete control) ([5]; Preemergence, 500 g ai/ha): 0 | Plant response rating, Ryegrass, Italian [6, 27]: 0 | Ryegrass, Italian plant response rating (0 to 100 scale, 0 is no effect, 100 is complete control) ([6]; Preemergence, 500 g ai/ha): 0 | Galium plant response rating [7, 25]: 30 | Plant response rating, Galium [7, 28]: 50 | Kochia plant response rating (Kochia (Kochia scoparia) [8]; [25]): 0 | Plant response rating, Kochia (Kochia (Kochia scoparia) [8]; [28]): 0 | Barnyardgrass plant response rating [9, 25]: 40 | Plant response rating, Barnyardgrass [9, 28]: 70 | Blackgrass plant response rating [10, 25]: 0 | Plant response rating, Blackgrass [10, 28]: 0 | Corn plant response rating (corn (Zea mays); [25]): 0 | Plant response rating, Corn (corn (Zea mays); [28]): 0 | Foxtail, Giant plant response rating [11, 25]: 40 | Plant response rating, Foxtail, Giant [11, 28]: 80 | Pigweed plant response rating [12, 25]: 0 | Plant response rating, Pigweed [12, 28]: 0 | Ragweed plant response rating [13, 25]: 0 | Plant response rating, Ragweed [13, 28]: 0 | Ryegrass, Italian plant response rating [14, 25]: 0 | Plant response rating, Ryegrass, Italian [14, 28]: 0 | Wheat plant response rating [15, 25]: 0 | Plant response rating, Wheat [15, 28]: 0 | Plant response rating, Barnyardgrass ([16]; 500 g ai/ha): 20 | Plant response rating, Ducksalad ([17]; 500 g ai/ha): 98 | Plant response rating, Rice (rice (Oryra sativa); 500 g ai/ha): 0 | Plant response rating, Sedge, Umbrella ([18]; 500 g ai/ha): 0

— patent US12077503B2, “Substituted cyclic amides and their use as herbicides” (FMC CORPORATION, priority 2015, dated 2024)
